# Measured values: patent US10106577B2, “Agonists of neurotrophin receptors and their use as medicaments” (BIONURE FARMA, S.L., priority 2010, dated 2018)
# Columns and labels:
# [1] = tested on: retinal ganglion cells (RGC); test: Glaucoma model, count of retinal ganglion cells; format: in vivo, Sprague Dawley rats
# Description: 12 Sprague Dawley rats (4 months of age) were anesthetized with […] and subjected to hypertonic saline solution injection into the episcleral vein of the right eye. Intraocular pressure (IOP) was measured before the operation and was monitored one time a week using a TonoLab for 7 weeks. Treatment with G79 was begun one week after glaucoma induction by topical application at the conjunctive. Two different experiments were performed.
# In the first experiment, G79 was dissolved into physiological solution and was used at two different concentration (200 μg/ml and 400 μg/ml). NGF was used as positive control (200 μg/ml) and the physiological solution, used to dissolve all the molecules, was subministered as placebo. The animals were divided into 4 groups (3 animals in each group): glaucoma-G79 200 μg/ml; glaucoma-G79 […]; glaucoma-NGF; glaucoma-placebo. The left eye was used as the control without glaucoma. In both experiments, seven weeks after glaucoma induction, animals were sacrificed by overdose of anaesthetic and their eyes were taken and fixed in 4% of PFA. The eyes were included in paraffin and cut into 20 μm sections to be used for histological studies (hematoxilin-eosin staining). The cell count of the number of retinal ganglion cells (RGC) was performed randomly in ten different fields for each eye.
# Rats were injected with a hypertonic solution in the eye that induced high intraocular pressure for five weeks. Animals were treated with eye drops of NGF ([…]), G79 ([…]) or placebo every day for five weeks. Animals with glaucoma and treated with placebo (saline) have a significant decrease in the number of retinal ganglion cells compared with control.
# In the second experiment, G79 at the concentration of 200 μg/ml was used. The objective of this second experiment was to compare the efficacy of G79 to Timolol, the most common therapy for glaucoma that works by decreasing the intraocular pressure. Also in this experiment, a combination treatment with G79 and Timolol was performed. […]
# TrkA = biological target: T1, TrkA (Rattus norvegicus, UniProt P35739); test: Western blot analysis of receptor phosphorilation in PC12 cells; format: cell-based; settings: G79 100 ng/ml; 5-15-30-60 min
# T1 construct: PC12 cells expressing both TrkA and p75 receptors were cultivated in normal growth medium; endogenous in cells; host or cells: PC12
# Description: (§1) Neurotrophin receptors TrkA and TrkB activation (phosphorilation) was evaluated by Western-blot as follows: PC12 cell growing on 24-well plates were treated with low serum medium (0.5% FBS) to reduce the basal level of phosphorilation. After 24 h, the PC12 cells were treated with G79 (100 ng/ml), then recovered and lysated in 300 μl of ice-cold lysis buffer (Sigma Aldrich) at 5-15-30-60 min. After sonication, cell debris were removed by centrifugation (14000 rpm for 10 min) and equal amount of supernatant (30-35 μg/well) were loaded and separated by 10% polyacrilamide gel electrophoresis (PAGE) and then electrobloted onto PVDF membranes. Membranes were blocked by 5% nonfat milk and then sequentially incubated with the primary antibodies [phospho-TrkA, Tyr490 (Cell Signaling) or phospho-TrkB, Tyr515 (NovusBiological)] 1:1000 over-night and the secondary antibodies 1:2000, for 1 h at room temperature. Blots were processed for visualization by chemiluminescence system (Amersham) and exposed to Kodak film to visualize the fluorographic image.
# TrkB = biological target: T2, TrkB (Rattus norvegicus, UniProt Q63604); test: as above; format: cell-based; settings: G79 100 ng/ml; 5-15-30-60 min
# T2 construct: endogenous in cells; host or cells: PC12
# Description: as §1
# IL-1β = test: Neuroinflammation in vitro model, organotypic cerebellar culture challenged with LPS, ELISA; format: cell-based, mice; settings: G79 100 ng/ml pre-treatment; LPS 15 μg/ml
# Text: (§2) Neonates mice (day 8 after birth (P8)) were decapitated after anaesthetic IP injection and whole brains were removed aseptically. Cerebellum was separated from the rest of the brain and placed on a metal vibratome plate. Once the cerebellum was attached to the surface of the plate, 400 μm sagittal sections were cut using the vibratome. The slices were then transferred with a plastic Pasteur pipette to a cell culture plate containing an organotypic culture medium (5% CO2 in 50% basal medium with Earle's salt, 25% Hank's buffered salt solution, 25% inactivated horse serum, 5 mg/ml glucose, 0.25 mM L-glutamine and 25 μg/ml penicillin/streptomycin). After separating and isolating each slice, the cerebellar slices were then transferred to 6-well plates (3 slices for each well) containing a 30 mm culture plate insert with 0.4 μm pores (Millipore) and 1 ml full culture medium, pre-conditioned by incubation for at least 2 hours at 37° C., and 5% CO2 was added into each well below the insert. The six-well plates were kept at 37° C. and under 5% CO2, and half the medium was replaced every 2 days. All the experiments were performed after 1 week of culture in such conditions.
# (§3) After one week of organotypic cerebellum culture, the medium of each well was replaced with fresh medium and G79 (100 ng/ml) or placebo (physiologic solution) was added to the wells and kept in incubation for 1 hour. […]
# TNFα = test: as above; format: cell-based, mice; settings: G79 100 ng/ml pre-treatment; LPS 15 μg/ml
# Text: as §2, §3
# T2 sequence (Q63604 32-821): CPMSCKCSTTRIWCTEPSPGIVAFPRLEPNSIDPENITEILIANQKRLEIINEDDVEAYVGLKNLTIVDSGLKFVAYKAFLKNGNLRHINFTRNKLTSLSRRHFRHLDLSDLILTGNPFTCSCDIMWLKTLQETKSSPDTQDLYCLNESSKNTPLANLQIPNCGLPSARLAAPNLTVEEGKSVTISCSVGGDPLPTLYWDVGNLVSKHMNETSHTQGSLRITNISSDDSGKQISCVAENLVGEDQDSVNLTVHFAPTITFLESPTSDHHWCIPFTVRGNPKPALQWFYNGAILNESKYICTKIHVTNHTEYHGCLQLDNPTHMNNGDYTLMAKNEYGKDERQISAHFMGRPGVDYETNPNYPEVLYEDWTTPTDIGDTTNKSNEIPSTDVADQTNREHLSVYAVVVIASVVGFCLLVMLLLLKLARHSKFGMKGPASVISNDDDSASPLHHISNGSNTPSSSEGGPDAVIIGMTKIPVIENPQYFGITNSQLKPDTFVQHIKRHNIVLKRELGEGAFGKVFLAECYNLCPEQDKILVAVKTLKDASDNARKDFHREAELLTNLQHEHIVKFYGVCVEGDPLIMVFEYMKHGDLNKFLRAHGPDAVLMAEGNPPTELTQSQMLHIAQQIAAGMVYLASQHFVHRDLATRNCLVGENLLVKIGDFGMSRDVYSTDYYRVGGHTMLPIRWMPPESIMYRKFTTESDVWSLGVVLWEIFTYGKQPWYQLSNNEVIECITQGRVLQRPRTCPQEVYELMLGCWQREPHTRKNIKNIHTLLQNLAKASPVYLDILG
# T1 sequence (P35739 33-799): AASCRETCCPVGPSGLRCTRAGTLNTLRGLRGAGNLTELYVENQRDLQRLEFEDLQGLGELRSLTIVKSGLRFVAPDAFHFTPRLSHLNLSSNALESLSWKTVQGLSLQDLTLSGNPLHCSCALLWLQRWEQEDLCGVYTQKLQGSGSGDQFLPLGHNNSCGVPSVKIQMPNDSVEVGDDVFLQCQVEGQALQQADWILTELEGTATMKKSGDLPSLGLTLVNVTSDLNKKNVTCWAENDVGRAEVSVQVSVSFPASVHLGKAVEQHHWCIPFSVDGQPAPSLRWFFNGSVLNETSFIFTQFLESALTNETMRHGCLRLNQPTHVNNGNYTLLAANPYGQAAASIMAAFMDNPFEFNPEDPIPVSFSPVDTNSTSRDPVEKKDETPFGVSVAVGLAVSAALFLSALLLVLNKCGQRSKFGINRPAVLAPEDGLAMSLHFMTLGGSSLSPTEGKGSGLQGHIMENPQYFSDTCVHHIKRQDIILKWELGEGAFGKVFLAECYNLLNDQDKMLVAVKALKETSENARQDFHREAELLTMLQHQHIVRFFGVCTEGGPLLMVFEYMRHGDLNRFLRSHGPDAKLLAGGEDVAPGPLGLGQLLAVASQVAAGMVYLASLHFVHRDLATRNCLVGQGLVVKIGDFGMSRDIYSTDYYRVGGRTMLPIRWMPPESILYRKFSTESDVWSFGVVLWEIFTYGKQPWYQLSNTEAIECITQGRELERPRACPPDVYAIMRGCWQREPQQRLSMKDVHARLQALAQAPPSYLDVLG
compound,measurement,setting,value
"CC(C)CN(CC(=O)N(CCCN1CCCC1=O)CC(N)=O)C(=O)CNCCc1ccccc1F [Compound G79, [N-(2-(2′-Fluorophenyl)ethyl)glycyl]-[N-(2-methylpropyl)glycyl]-N-[3-(2′-oxopyrrolidinyl)propyl]glycinamide]",protection of retinal ganglion cells (number of RGC vs glaucoma-placebo),"[1]; first experiment, eye drops, NGF 200, G79 200 and 400 μg/ml",significant protection of the ganglion cells
same,protection of RGCs by the combination treatment,"[1]; second experiment, G79 200 μg/ml in combination with Timolol",did not exert additive effect in protecting RGCs
same,"TrkA phosphorilation (phospho-TrkA, Tyr490)",TrkA,phosphorilated already after 5 min
same,"TrkB phosphorilation (phospho-TrkB, Tyr515)",TrkB,phosphorilated already after 5 min
same,release of IL-1β,IL-1β,did not affect the release of IL-1β
same,production of TNFα compared to placebo,TNFα,reduced at 6 and 12 hours
